# Assay results: US9526720B2, “Modulators of hepatic lipoprotein metabolism” (The Broad Institute, Inc., priority 2012, dated 2016)
# “Also recorded” adds a separate entry of the source.
# Tests used:
# FASN = assay: qPCR FASN transcript level in HepG2 cells; type: cell-based; settings: Homo sapiens, 20 h
# Description: (§1) In the primary screen, HepG2 cells were plated in 384-well plates at 2000 cells per well and incubated for 20 hours with each compound in duplicate at 10 microM concentration. Then RNA was isolated, reverse-transcribed to cDNA, and stored at −80° C. Expression levels of TRIB1 and other target genes, such as SORT1 and PCSK9, were determined by quantitative PCR. Relative gene expression level was normalized to expression of the housekeeping gene, GAPDH. A “hit” was defined as those compounds that caused a greater than 2-fold increase in relative target gene expression when normalized to GAPDH expression, compared to DMSO-treated control. Using these criteria, 130 hits were identified for TRIB1 (0.8% hit rate).
# (§2) Further analysis of the expression levels of various proteins in the cholesterol and triglyceride biosynthetic pathways in response to TRIB1 inducer treatment was performed. In particular, transcript levels of additional lipoprotein metabolism pathway proteins SCAP, SREBF1, SREBF2, HMGCR, HMGCS, SCD1, FASN and MTTP were assessed by qPCR, along with TRIB1, LDLR, and PCSK9. The gene expression profile for the same subset of genes was also assessed after treatment with the statin atorvastatin (Lipitor), commonly used in therapy for hypercholesterolemia and other cardiovascular diseases.
# SCAP = assay: qPCR SCAP transcript level in HepG2 cells; type: cell-based, human
# Description: as §1, §2
# TRIB1 [1] = assay: qPCR TRIB1 expression in HepG2 cells; type: cell-based, human; settings: for TRIB1 expression (in words) / potency relative to berberine: HepG2; for TRIB1 expression (in words): qPCR; for potency relative to berberine: TRIB1, LDLR, PCSK9 and MTTP gene expression changes
# Description: as §1, §2
# (§3) The kinetics of the modulation of TRIB1, LDLR, PCSK9 and MTTP gene expression after treatment by select TRIB1 inducer compounds was monitored by qPCR analysis (FIG. 4). RNA was extracted from cells at various timepoints over 28 hours of treatment (0, 2, 4, 6, 8, 24, 28 hours). Specifically, compounds 12a and 14a induced transcriptional responses over time similar to those produced by berberine, a plant alkaloid used in Chinese medicine. […] Both compound 12a and compound 14a induce TRIB1 and LDLR and repress PCSK9 and MTTP expression with similar kinetics and similar fold change as berberine Importantly, both compounds induce these gene expression changes at much lower concentrations than berberine. […] This increased potency indicates the potential therapeutic efficacy of such compounds for treatment of cardiovascular diseases, particularly hypercholesterolemia and related conditions.
# PCSK9 [2] = assay: ELISA of secreted PCSK9 protein in HepG2 cells; type: cell-based, human
# Description: (§4) Additional secondary assays were performed in HepG2 cells to further characterize the cellular response to treatment with select confirmed TRIB1 inducer hits. The results of the ELISA, CTG, and qPCR secondary assays are summarized in Table B. For all secondary assays, the experiments were performed using powders of freshly purified compounds.
# (§5) To further characterize the relationship of TRIB1 induction and PCSK9 reduction, ELISAs were performed to measure the levels of secreted ApoB, PCSK9, and LDLR. […] As predicted treatment with TRIB1 inducer hits caused a decrease in ApoB levels detected by ELISA. In parallel effort, 3200 BIOA and NATP compounds were screened for PCSK9 expression inhibitors. Hits were defined as inducing greater than 3-fold downregulation of PCSK9, and 3.8% of the screened compounds were confirmed as hits. […] In further experiments, a strong correlation was confirmed between TRIB1 induction and PCSK9 repression in DOS Collection hits. ELISA analysis confirmed that treatment with TRIB1 inducers reduced the PCSK9 protein levels. LDLR protein levels were also analyzed by ELISA to determine whether compounds that modulate both TRIB1 and PCSK9 had any effect on LDLR protein levels.
# LDLR [3] = assay: ELISA of LDLR protein in HepG2 cells; type: cell-based, human
# Description: as §4, §5
# LDLR [4] = assay: qPCR LDLR expression in HepG2 cells; type: cell-based, human; settings: for induction of LDLR expression in combination with simvastatin (in words): overnight simvastatin, then compound
# ApoB = assay: ELISA of secreted ApoB in HepG2 cells; type: cell-based, human
# Description: as §4, §5
# SREBF1 = assay: qPCR SREBF1 transcript level in HepG2 cells; type: cell-based, human
# Description: as §1, §2
# HepG2 cells [5] = assay: Cell Titer Glo (CTG) cell viability assay; type: cell-based, human; design: key: A: Increase <2-fold; B: Increase >2-fold; X: Decrease <2-fold; Y: Decrease >2-fold; No significant change; settings: cell viability (ATP)
# Description: Cell viability was determined using a Cell Titer Glo (CTG) assay ([…]) after treatment with TRIB1 inducer compounds. In this assay, the number of viable cells in culture is based on quantitation of ATP, which indicates metabolically active cells. Addition of the reagent results in cell lysis and generation of a luminescent signal proportional to the amount of ATP present, which is directly proportional to the number of viable, metabolically active cells present in culture. Most TRIB1 inducer compounds had no significant effect on cell viability.
# HMGCS = assay: qPCR HMGCS transcript level in HepG2 cells; type: cell-based; settings: Homo sapiens, 20 h
# Description: as §1, §2
# SCD1 = assay: qPCR SCD1 transcript level in HepG2 cells; type: cell-based; settings: Homo sapiens, 20 h
# Description: as §1, §2
# MTTP = assay: qPCR MTTP expression in HepG2 cells; type: cell-based, human; settings: 28 hour time course
# Description: as §2
# The kinetics of the modulation of TRIB1, LDLR, PCSK9 and MTTP gene expression after treatment by select TRIB1 inducer compounds was monitored by qPCR analysis (FIG. 4). RNA was extracted from cells at various timepoints over 28 hours of treatment (0, 2, 4, 6, 8, 24, 28 hours). Specifically, compounds 12a and 14a induced transcriptional responses over time similar to those produced by berberine, a plant alkaloid used in Chinese medicine. […] Both compound 12a and compound 14a induce TRIB1 and LDLR and repress PCSK9 and MTTP expression with similar kinetics and similar fold change as berberine Importantly, both compounds induce these gene expression changes at much lower concentrations than berberine. […]
# HMGCR = assay: qPCR HMGCR transcript level in HepG2 cells; type: cell-based, human
# Description: as §1, §2
# LDLR [6] = assay: qPCR LDLR expression in HepG2 cells; type: cell-based, human; settings: for LDLR expression (in words): HepG2, qPCR
# Description: as §1, §2, §3
# HepG2 cells [7] = assay: BODIPY-FL LDL uptake in HepG2 cells (high content microscopy); type: cell-based, human; settings: treated 20 hours; BODIPY-FL LDL uptake monitored 5 hours
# Description: TRIB1 inducers increase the rate of LDL uptake. HepG2 cells grown under standard culture conditions (10% FBS) were treated for 20 hours with compounds 2a, 14a and 12a at indicated concentrations and the uptake of BODIPY-FL conjugated LDL particles was monitored for 5 hours using high content microscopy. To control for regulation of LDL uptake by cholesterol, cells were grown in media depleted for (0.5% LPDS—lipoprotein deficient serum) or supplemented with cholesterol (0.5% LPDS plus cholesterol ([…] cholesterol and […] 25-OH cholesterol)).
# APOC3 = assay: Transcriptional profiling of APOC3 gene in HepG2 cells; type: cell-based, human; settings: 10 μM, 24 hours
# Excerpt: Expression of APOC3 is associated with increased levels of triglycerides in plasma and carriers of APOC3 gene null mutation have low levels of triglycerides and are protected from cardiovascular disease (Pollin et al., Science, 322:1702, 2008).
# PCSK9 [8] = assay: qPCR PCSK9 expression in HepG2 cells; type: cell-based, human; settings: for PCSK9 expression (in words): qPCR
# Description: as §1, §2, §3
# SREBF2 = assay: qPCR SREBF2 transcript level in HepG2 cells; type: cell-based, human
# Description: as §1, §2
# TRIB1 [9] = assay: qPCR TRIB1 expression in HepG2 cells; type: cell-based; settings: Homo sapiens, HepG2; induction of TRIB1 and LDLR transcript levels; read-out: half maximal effective concentration (EC50)
# [10] = Homo sapiens, 20 h, HepG2 cells
# [11] = at the maximal dose tested, HepG2
smiles,measurement,setting,value
CN(C)c1ccc2c(c1)[C@@H]1C[C@@H](CC(=O)NCc3ccc(Oc4ccccc4)cc3)O[C@@H](CO)[C@@H]1O2 [Compound 12a],fold induction at 10 µM,FASN,> 2
same,qPCR SCAP,SCAP,X (Decrease <2-fold)
same,TRIB1 expression (in words),TRIB1 [1],induce; also recorded: robustly induced
same,fold induction at 10 µM,TRIB1 [1]; [10],< 2
same,potency relative to berberine,TRIB1 [1],5 fold
same,ELISA PCSK9,PCSK9 [2]; HepG2 cells,Y (Decrease >2-fold)
same,inhibition of secretion of PCSK9 protein into the media,PCSK9 [2]; [11],70%
same,increase of the LDL receptor protein in the cell,LDLR [3]; HepG2,3 fold
same,ELISA LDLR,LDLR [3]; HepG2 cells,B (Increase >2-fold)
same,induction of LDLR expression in combination with simvastatin (in words),LDLR [4],additive effect
same,secretion of apoB into the media / ApoB levels (in words),ApoB; HepG2,inhibited secretion of apoB
same,ELISA ApoB,ApoB; HepG2 cells,Y (Decrease >2-fold)
same,qPCR SREBF1,SREBF1,Y (Decrease >2-fold)
same,CTG,HepG2 cells [5],N
same,fold induction at 10 µM,HMGCS,> 2
same,fold induction at 10 µM,SCD1,> 2
same,MTTP expression (in words),MTTP,repress
same,qPCR HMGCR,HMGCR,Y (Decrease >2-fold)
same,LDLR expression (in words),LDLR [6],induction of LDLR expression; also recorded: induce; also recorded: robustly induced
same,qPCR LDLR,LDLR [6]; HepG2 cells,A (Increase <2-fold)
same,rate of LDL uptake (in words),HepG2 cells [7],robust increase
same,expression of APOC3 gene (in words),APOC3,down regulates
same,PCSK9 expression (in words),PCSK9 [8]; HepG2,repress; also recorded: strongly reduced
same,fold induction at 10 µM,PCSK9 [8]; [10],> 2
same,inhibition of expression of PCSK9 mRNA,PCSK9 [8]; [11],70%
same,expression of PCSK9 stimulated by pretreatment with atorvastatin (in words),PCSK9 [8],potently reduced
same,qPCR SREBF2,SREBF2,Y (Decrease >2-fold)
CN1C(=O)c2cc(NC(=O)c3ccc(C(F)(F)F)cc3)ccc2OC[C@@H]2O[C@H](CC(=O)NC3Cc4ccccc4C3)CC[C@@H]21 [Compound 14a],TRIB1 expression (in words),TRIB1 [1],induce; also recorded: robustly induced
same,potency relative to berberine,TRIB1 [1],10 fold
same,EC50,TRIB1 [9],< 1000 nM
same,EC50,"PCSK9 [2]; Homo sapiens, HepG2, 24 h, read-out: ELISA 24 Hr (EC50 uM) PCSK9 decrease",0.51 to 1 µM
same,LDLR signal over the non-depleted control,"LDLR [4]; 2.5 μM, 0.5% LPDS, 24 h",9 fold
same,induction of LDLR expression in combination with simvastatin (in words),LDLR [4],additive effect
same,EC50,"ApoB; Homo sapiens, HepG2, 24 h, read-out: ELISA 24 Hr (EC50 uM) ApoB decrease",1.1 to 2 µM
same,MTTP expression (in words),MTTP,repress
same,LDLR expression (in words),LDLR [6],induce; also recorded: robustly induced
same,EC50,"LDLR [6]; Homo sapiens, HepG2, 6 h, read-out: qPCR 6Hr (EC50 uM) LDLR up-regulation",0.51 to 1 µM
same,rate of LDL uptake (in words),HepG2 cells [7],robust increase
same,decrease of PCSK9 mRNA below the level induced by cholesterol starvation,"PCSK9 [8]; 2.5 μM, 0.5% LPDS, 24 h",3.8 fold
same,PCSK9 expression (in words),PCSK9 [8]; HepG2,repress; also recorded: strongly reduced
same,expression of PCSK9 stimulated by pretreatment with atorvastatin (in words),PCSK9 [8],potently reduced
